Data set [1] has as its system ShC4 strain. Description: ShC4 antibiotic sensitivity test (antibiotic sensitivity tablets). Format: cell-based, Staphylococcus hominis. The following applies: for Mean diameter (mm) of inhibitory ring: antibiotic content per tablet, 36±1° C., 24 hours, three replicates; for sensitivity of ShC4 strain to the antibiotic (in words): summary of Table 1.
The subject of data set [2] is Dunkin Hartley guinea pigs. The following applies: 200 μL applied on D0, D7, D14, provocation D28; ShC4 2E10 CFU; scored to 72 hours after stimulation.
Setting [3] is: standard for oxacillin and piperacillin.
Where [4] appears, read: standard for penicillin and ampicillin.
Where [5] appears, read: standard for tetracycline and minocycline.

From patent publication US20260014210A1, “SYMBIOTIC BACTERIUM IN HUMANS FOR PROMOTING HAIR GROWTH AND USE THEREOF” (priority 2022, published 2026) come the findings set out here.

Turning to `Cc1onc(-c2ccccc2)c1C(=O)N[C@@H]1C(=O)N2[C@@H]1SC(C)(C)[C@@H]2C(=O)O` [Oxacillin (OX), Oxacillin], in data set [1], the “Mean diameter (mm) of inhibitory ring” value came out at 29.4 mm and the “sensitivity of ShC4 strain to the antibiotic (in words)” value (“sensitivity of ShC4 strain” for short) is “sensitive”. For the same molecule, in data set [1] (setting [3]), the Sensitivity entry was “S (≥18)”.
In the case of `CC1(C)S[C@@H]2[C@H](NC(=O)[C@H](N)c3ccccc3)C(=O)N2[C@H]1C(=O)O` [ampicillin], in data set [1], the “Mean diameter (mm) of inhibitory ring” value is on record as 16.69 mm and the “sensitivity of ShC4 strain” value was “resistance”. Further, the Sensitivity entry in data set [1] (setting [4]) is given as “R (≤28)”.
Consider cotrimoxazole, for which, in data set [1], the “Mean diameter (mm) of inhibitory ring” value is listed as 0 mm and the “sensitivity of ShC4 strain” value is “resistance”.
As to `CCN1CCN(C(=O)N[C@@H](C(=O)N[C@@H]2C(=O)N3[C@@H]2SC(C)(C)[C@@H]3C(=O)O)c2ccccc2)C(=O)C1=O` [Piperacillin], in data set [1], the “Mean diameter (mm) of inhibitory ring” value was found to be 18.86 mm and the “sensitivity of ShC4 strain” value is given as “sensitive”. Besides, the Sensitivity entry in data set [1] (setting [3]) is listed as “S (≥18)”.
Turning to `CN(C)c1ccc(O)c2c1C[C@H]1C[C@H]3[C@H](N(C)C)C(O)=C(C(N)=O)C(=O)[C@@]3(O)C(O)=C1C2=O` [minocycline], the “Mean diameter (mm) of inhibitory ring” value in data set [1] is 29.33 mm. The Sensitivity entry in data set [1] (setting [5]) is given as “S (≥19)”.
The like results for `CN(C)[C@@H]1C(O)=C(C(N)=O)C(=O)[C@@]2(O)C(O)=C3C(=O)c4c(O)cccc4[C@@](C)(O)[C@H]3C[C@@H]12` [tetracycline] were, in that order, 25.85 mm and “S (≥19)”.
Take `CC[C@H]1OC(=O)[C@H](C)[C@@H](O[C@H]2C[C@@](C)(OC)[C@@H](O)[C@H](C)O2)[C@H](C)[C@@H](O[C@@H]2O[C@H](C)C[C@H](N(C)C)[C@H]2O)[C@](C)(O)C[C@@H](C)C(=O)[C@H](C)[C@@H](O)[C@]1(C)O` [erythromycin]: in data set [1], the “Mean diameter (mm) of inhibitory ring” value was 23.96 mm and the “sensitivity of ShC4 strain” value is listed as “sensitive”. In data set [1] (standard for erythromycin), the Sensitivity result is on record as “S (≥23)”.
Take Penicillin [Penicillin (P)]: in data set [1], the “Mean diameter (mm) of inhibitory ring” value is recorded as 15.72 mm and the “sensitivity of ShC4 strain” value was “resistance”. Also, the Sensitivity result in data set [1] (setting [4]) was “R (≤28)”.
For 2,4-dinitrochlorobenzene [CDNB], the allergy rate in data set [2] came out at 100%.
